These results are taken from patent US20100210602A1, “PhoU (PerF), A P[…] INVOLVED IN [sequence] FORMATION AND TOLERANCE TO MULTIPLE ANTIBIOTICS AND [sequence] AS A DRUG TARGET FOR [sequence] BACTERIA” (priority 2006, published 2010).

Values after ≈ are worked out from the molar mass of the structure shown. Where two headings read alike, the source gives them in different places.

The target in one test is T1, PhoY1 (Mycobacterium tuberculosis, UniProt P9WI97).
T1 sequence (P9WI97 1-221): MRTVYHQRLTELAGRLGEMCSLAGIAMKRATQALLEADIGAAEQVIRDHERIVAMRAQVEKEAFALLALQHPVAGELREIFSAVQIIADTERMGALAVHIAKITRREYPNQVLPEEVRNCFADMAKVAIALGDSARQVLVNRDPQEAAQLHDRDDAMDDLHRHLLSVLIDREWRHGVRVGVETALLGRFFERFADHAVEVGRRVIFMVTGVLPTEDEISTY
Put plainly: EnzChek phosphatase assay. The test is classed as biochemical, M. tuberculosis. To be noted: pH 5.5.

In a further test the target is T2, E. coli PhoU (Escherichia coli, UniProt P0A9K7).
T2 construct: His; made in house
T2 sequence (P0A9K7 whole entry): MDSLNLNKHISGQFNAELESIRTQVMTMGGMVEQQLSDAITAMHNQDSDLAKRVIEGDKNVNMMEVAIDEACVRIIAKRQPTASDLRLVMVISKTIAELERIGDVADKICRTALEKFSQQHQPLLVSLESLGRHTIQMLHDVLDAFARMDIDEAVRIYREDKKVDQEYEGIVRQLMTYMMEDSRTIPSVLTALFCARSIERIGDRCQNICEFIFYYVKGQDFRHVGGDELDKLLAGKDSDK
The experiment in a line: EnzChek phosphatase assay, DiFMUP substrate, pH 5.5. Type of test: biochemical. The note with it: pH 5.5, DiFMUP.

A further test concerns the target PhoY2 (Mycobacterium tuberculosis, UniProt P9WI95). Put plainly: EnzChek phosphatase assay, FDA approved compound library screen. Type of test: biochemical, M. tuberculosis. To be noted: pH 5.5. The protocol: The FDA approved compound library consisting of about 3000 clinical compounds (50 μM final concentration) was screened for inhibitory activity for M. tuberculosis PhoU homolog PhoY2 for phosphatase activity using the EnzChek phosphatase assay kit in a 96 well plate format. The assay was run for 30 min, 60 min and overnight when the plates were read in a fluorescence plate reader (Perkin Elmer). Aurintricarboxylic acid, a known phosphatase inhibitor, was included as a positive control.

The test system of a further test is PhoU mutant. Put plainly: Weak acid susceptibility on LB agar pH 5.0. The test is classed as cell-based, E. coli. The note with it: salicylic acid 80 μg/ml, pyrazinoic acid 230 μg/ml, overnight 37° C.
The test system of test [1] is wild type strain W3110. Put plainly: Weak acid susceptibility on LB agar pH 5.0. The test is classed as cell-based, E. coli. To be noted: salicylic acid 80 μg/ml, pyrazinoic acid 230 μg/ml, overnight 37° C.
The subject of test [2] is H37Rv. The experiment in a line: microbe, parasite or virus in culture. The test is classed as cell-based, M. tuberculosis. To be noted: Mycobacterium tuberculosis.
Another test deals with PhoU mutant JHU-313. Type of test: cell-based, E. coli.
For test [3], the system named is wild type strain W3110. Put plainly: microbe, parasite or virus in culture. Type of test: cell-based, E. coli. The note with it: for CFU remaining: stationary phase.
Test [4] has as its system H37Rv. The experiment in a line: microbe, parasite or virus in culture. The test is classed as cell-based, M. tuberculosis. To be noted: Mycobacterium tuberculosis, 240 h, pH 5.6, pH5.6, 10 days at 37° C.
The subject of another test is parent strain H37Rv. Type of test: cell-based, M. tuberculosis. To be noted: 200 μg/ml.
In a further test the test system is M. tuberculosis H37Rv. Put plainly: Killing of old stationary phase cells by PhoY2 inhibitors with TB drugs (CFU). Type of test: cell-based. The note with it: one and two week exposure, 37° C. How it is done: PhoY2 phosphatase activity inhibitors identified in the screen were tested for their ability to decrease persister formation in M. tuberculosis. […] After one and two week exposure, CFU (colony forming unit) was measured.

PhoY2, sequence (P9WI95 whole entry): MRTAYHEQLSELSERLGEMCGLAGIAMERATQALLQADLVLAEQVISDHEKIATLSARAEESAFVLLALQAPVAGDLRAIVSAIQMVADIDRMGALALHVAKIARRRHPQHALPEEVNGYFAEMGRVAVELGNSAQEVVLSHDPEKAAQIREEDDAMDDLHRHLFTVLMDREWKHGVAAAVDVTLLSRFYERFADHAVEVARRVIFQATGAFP
Method for E. coli PhoU: In order to test PhoU for phosphatase activity, purified PhoU protein was analyzed using the EnzChek phosphatase assay kit (Invitrogen, Molecular Probes). Phosphatase activity was continuously monitored at acidic pH 5.5 and 6,8-difluoro-4-methylumbelliferyl phosphate (DiFMUP) was used as the substrate according to manufacturer's instruction.
Since most phosphatases have a metal requirement for activity, using either Mg^2+ or Zn^2+, the effects of various metal ions on the PhoU phosphatase enzyme activity were examined at acidic pH 5.5 and using DiFMUP as a substrate.
Phosphatase assays were performed using purified recombinant wild type and mutant PhoU proteins.

phosphate: the “effect on PhoY1 phosphatase activity” value on PhoY1 is “inhibited”. Besides, the “effect on PhoU phosphatase activity” value on E. coli PhoU is recorded as “inhibit the phosphatase activity”. Besides, the “effect on PhoY2 phosphatase activity” value on PhoY2 is “inhibited”.

Take `O=C(O)c1ccccc1O` [salicylic acid]: the “growth on LB agar with weak acid” value in the test on PhoU mutant is “lack of growth at ⅓ MIC”; in the test with wild type strain W3110 [1], “resistant”.

As for `NC(=O)c1cnccn1` [PZA, pyrazinamide], in the test on H37Rv [2] (pH 5.9, read-out: MBC), the MBC stood at 400 µg/mL (≈ 3250 µM). Moreover, the MIC in the test with H37Rv [2] (pH 5.9, read-out: MIC) is 200 µg/mL (≈ 1620 µM); with wild type strain W3110 [3] (Escherichia coli, W3110, normal growing E. coli, pH 5.0) it was over 2000 µg/mL; in the test on H37Rv [4] it was 200 µg/mL (≈ 1620 µM). Moreover, the killing of culture entry with PhoU mutant JHU-313 (pH 5) is “completely killed”. For the same compound, the viable bacteria left result in the test on PhoU mutant JHU-313 (stationary phase, 500 μg/ml, pH 5.0, 1 week) is “no viable bacteria left”. For the same compound, in the test on PhoU mutant JHU-313 (stationary phase, 2 mg/ml, pH 5.0, day 6), the sterilization of culture entry is on record as “completely sterilized”. The CFU left entry in the test on wild type strain W3110 [3] (pH 5) is given as “about 10^6 CFU/ml”. Moreover, the CFU remaining with wild type strain W3110 [3] (500 μg/ml, pH 5.0, 1 week) is given as 5×10^4 CFU/ml; with wild type strain W3110 [3] (2 mg/ml, pH 5.0, day 6), 6.7×10^6 CFU/ml. The “CFU/ml 3 day” value with parent strain H37Rv is given as 3.1 × 10^5 CFU/ml. Besides, the “CFU/ml 9 day” value in the test on parent strain H37Rv is 5.3 × 10^3 CFU/ml.

With Pyrantel tartrate, in the test with M. tuberculosis H37Rv, the “enhancement of INH, RIF or PZA activity” value is “could enhance the activity of INH, RIF or PZA”.

As for `O=C(O)c1cnccn1` [pyrazinoic acid], the “growth on LB agar with weak acid” value with PhoU mutant is “lack of growth at ⅓ MIC”; in the test on wild type strain W3110 [1], “resistant”.
